Measured values taken from PubChem BioAssay (NCI).
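Each compound was tested at five concentrations against cells in 96-well plates for 48 hours. TGI: total growth inhibition.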

Legend:
Assay in all cases: NCI tumour cell line growth inhibition, 48 h
HCT-116 colon = system: HCT-116 colon
SW-620 colon = system: SW-620 colon
NCI-H23 lung = system: NCI-H23 lung
SN12C renal = system: SN12C renal
SR leukemia = system: SR leukemia
UO-31 renal = system: UO-31 renal
A549 NSCLC = system: A549 NSCLC
SF-268 CNS = system: SF-268 CNS
PC-3 prostate = system: PC-3 prostate
KM12 colon = system: KM12 colon
ACHN renal = system: ACHN renal
HOP-62 NSCLC = system: HOP-62 NSCLC
T-47D breast = system: T-47D breast
NCI-H522 lung = system: NCI-H522 lung
MCF7 breast = system: MCF7 breast
SK-MEL-2 melanoma = system: SK-MEL-2 melanoma
HS 578T breast = system: HS 578T breast
SF-295 CNS = system: SF-295 CNS
SK-MEL-5 melanoma = system: SK-MEL-5 melanoma
TK-10 renal = system: TK-10 renal
OVCAR-8 ovarian = system: OVCAR-8 ovarian
UACC-257 melanoma = system: UACC-257 melanoma
DU-145 prostate = system: DU-145 prostate
SNB-75 CNS = system: SNB-75 CNS
M14 melanoma = system: M14 melanoma
SK-MEL-28 melanoma = system: SK-MEL-28 melanoma
CAKI-1 renal = system: CAKI-1 renal
MDA-N = system: MDA-N
NCI/ADR-RES ovarian = system: NCI/ADR-RES ovarian
SNB-19 CNS = system: SNB-19 CNS
LOX IMVI melanoma = system: LOX IMVI melanoma
786-0 renal = system: 786-0 renal
RPMI-8226 leukemia = system: RPMI-8226 leukemia
EKVX NSCLC = system: EKVX NSCLC
SF-539 CNS = system: SF-539 CNS
COLO 205 colon = system: COLO 205 colon
OVCAR-3 ovarian = system: OVCAR-3 ovarian
OVCAR-5 ovarian = system: OVCAR-5 ovarian
K-562 leukemia = system: K-562 leukemia
HCC-2998 colon = system: HCC-2998 colon
NCI-H460 lung = system: NCI-H460 lung
IGROV1 ovarian = system: IGROV1 ovarian
CCRF-CEM leukemia = system: CCRF-CEM leukemia
MOLT-4 leukemia = system: MOLT-4 leukemia
MDA-MB-435 = system: MDA-MB-435
U251 CNS = system: U251 CNS
HCT-15 colon = system: HCT-15 colon
OVCAR-4 ovarian = system: OVCAR-4 ovarian
UACC-62 melanoma = system: UACC-62 melanoma
NCI-H226 lung = system: NCI-H226 lung
HT29 colon = system: HT29 colon
HOP-92 NSCLC = system: HOP-92 NSCLC
RXF 393 renal = system: RXF 393 renal
SK-OV-3 ovarian = system: SK-OV-3 ovarian
MALME-3M melanoma = system: MALME-3M melanoma
MDA-MB-231 breast = system: MDA-MB-231 breast
A498 renal = system: A498 renal
HL-60(TB) leukemia = system: HL-60(TB) leukemia

Measured: TGI

C=C1C(=O)[C@@]23CC[C@@H]4[C@@]5(C)CCC[C@@]4(OC5=O)C2(C)CC[C@]1(OC)C3 (some centres not stated)
1.98 µM: MOLT-4 leukemia
4.56 µM: HOP-62 NSCLC
12.7 µM: A549 NSCLC
6.69 µM: HS 578T breast
3.21 µM: SF-539 CNS
4.92 µM: SN12C renal
4 µM: OVCAR-8 ovarian
13.4 µM: SF-295 CNS
21.8 µM: EKVX NSCLC
1.24 µM: K-562 leukemia
3.18 µM: TK-10 renal
2.36 µM: NCI-H522 lung
3.19 µM: UO-31 renal
7.2 µM: SF-268 CNS
3.39 µM: SK-MEL-5 melanoma
2.58 µM: SK-MEL-2 melanoma
2.44 µM: PC-3 prostate
3.23 µM: SW-620 colon
1.19 µM: LOX IMVI melanoma
3.66 µM: SK-MEL-28 melanoma
1.46 µM: SR leukemia
6.59 µM: NCI/ADR-RES ovarian
3.63 µM: SNB-19 CNS
2.34 µM: OVCAR-3 ovarian
3.69 µM: OVCAR-5 ovarian
18 µM: DU-145 prostate
0.436 µM: CCRF-CEM leukemia
1.88 µM: HCT-116 colon
6.92 µM: NCI-H460 lung
1.22 µM: MCF7 breast
4.76 µM: IGROV1 ovarian
4.25 µM: M14 melanoma
3.81 µM: UACC-257 melanoma
6.85 µM: KM12 colon
1.17 µM: 786-0 renal
5.07 µM: NCI-H23 lung
3.98 µM: ACHN renal
0.864 µM: RPMI-8226 leukemia
2.02 µM: MDA-N
5.64 µM: COLO 205 colon
3.41 µM: CAKI-1 renal
1.37 µM: HCC-2998 colon
3.22 µM: MDA-MB-435
3.07 µM: SNB-75 CNS
4.6 µM: T-47D breast

CSC(N)=Nc1cccc2ccccc12
not listed: HS 578T breast | OVCAR-5 ovarian
> 10 µM: all other assays above

CC(C)(NO)/C(=N\O)c1ccco1
40.8 µM: MOLT-4 leukemia
not listed: SR leukemia | NCI-H522 lung | SNB-75 CNS | K-562 leukemia | CCRF-CEM leukemia | A498 renal | HL-60(TB) leukemia
> 100 µM: all other assays above
